# Experimental data taken from patent US20110311591A1, “Antimicrobial Coating” (SHEFFIELD HALLAM UNIVERSITY, priority 2008, published 2011).
# Legend:
# Assay type in all cases: cell-based
# [1] = system: coagulase negative Staphylococcus epidermis; experiment: Growth on agar/gentamicin plate (resistance check); conditions: 50 μg per ml
# Protocol: (§1) Each of the bacterium where grown on a nutrient agar plate and an agar/gentamicin plate at a concentration of 50 μg per ml. This ensured the bacterial strains used where not resistant to gentamicin. One colony from the bacteria agar plate was used to inoculate a sterilized L-broth of 1% tryptone, 0.5% yeast extract, 0.5% NaCl, 0.2% glucose and left over night in a shaking incubator at 37° C.
# Staphylococcus aureus = experiment: Growth on agar/gentamicin plate (resistance check); conditions: 50 μg per ml
# Protocol: as §1
# [2] = system: Escherichia coli (W3110, k 12 mutant); experiment: Growth on agar/gentamicin plate (resistance check); conditions: 50 μg per ml
# Protocol: as §1
# bacteria = experiment: Viable count on high temperature (80° C.) dried coating; conditions: coat dried at 80° C.
# Protocol: The substrate was a standard glass microscope slide sterilized in an autoclave. Three different coatings were tested i) a pure sol-gel coating was used for a control, ii) a 5 mg/ml gentamicin solution mixed with sol-gel to form a 50 μg/ml coating (50 ppm) and a iii) 12.5 mg/ml concentration of gentamicin was made from gentamicin sulphate dissolved directly in the sol-gel to provide a 1.25% gentamicin sol-gel coating. Each coating was applied over the microscope slide using 200 μl of coating per plate, covered in one single coat and left for 24 hrs at room temperature to allow the coat to cure. Four plates were dried at 80° C. for 1 hr achieving a harder coat to determine if the gentamicin coat was still active after high temperature treatment.
# To infect the plates with bacteria, a “sloppy agar” was made up from 0.7 g of nutrient agar dissolved in 100 ml of Phosphate buffer saline (PBS) and autoclaved forming a jelly like consistency. After melting, 5 ml of a inoculate L-broth was pipetted in to 100 ml of sloppy agar and mixed with 500 μl of this inoculated agar to be pipetted on to a coated plate forming a drop sitting on top of the coat. The plate was then laid flat into a Petri dish which was then placed in to a sealed, airtight, container with damp tissue paper to keep the sloppy agar in a moist environment to prevent drying out. […]
substance,measurement,setting,value
gentamicin,susceptibility to gentamicin,[1],susceptible
same,susceptibility to gentamicin,Staphylococcus aureus,susceptible
same,susceptibility to gentamicin,[2],susceptible
same,gentamicin activity and release after high temperature drying of the coat,bacteria,still active and released
